Test results taken from US20250197372A1 (priority 2020, published 2025).

What was measured:
Assay type in all cases: biochemical
[1] = molecular target: T1, recombinant alpha-glucosidase I (human full-length glucosidase I, Glu 1) (Homo sapiens, UniProt Q13724); assay: Alpha-glucosidase I assay (Amplex Red glucose detection, synthetic trisaccharide substrate); conditions: Glucosidase 1; read-out: Glu 1 IC50
T1 construct: 6-His (C); made in house; host or cells: HEK-293T cells transduced with BacMam virus (virus raised in Sf9)
T1 sequence (Q13724 1-837): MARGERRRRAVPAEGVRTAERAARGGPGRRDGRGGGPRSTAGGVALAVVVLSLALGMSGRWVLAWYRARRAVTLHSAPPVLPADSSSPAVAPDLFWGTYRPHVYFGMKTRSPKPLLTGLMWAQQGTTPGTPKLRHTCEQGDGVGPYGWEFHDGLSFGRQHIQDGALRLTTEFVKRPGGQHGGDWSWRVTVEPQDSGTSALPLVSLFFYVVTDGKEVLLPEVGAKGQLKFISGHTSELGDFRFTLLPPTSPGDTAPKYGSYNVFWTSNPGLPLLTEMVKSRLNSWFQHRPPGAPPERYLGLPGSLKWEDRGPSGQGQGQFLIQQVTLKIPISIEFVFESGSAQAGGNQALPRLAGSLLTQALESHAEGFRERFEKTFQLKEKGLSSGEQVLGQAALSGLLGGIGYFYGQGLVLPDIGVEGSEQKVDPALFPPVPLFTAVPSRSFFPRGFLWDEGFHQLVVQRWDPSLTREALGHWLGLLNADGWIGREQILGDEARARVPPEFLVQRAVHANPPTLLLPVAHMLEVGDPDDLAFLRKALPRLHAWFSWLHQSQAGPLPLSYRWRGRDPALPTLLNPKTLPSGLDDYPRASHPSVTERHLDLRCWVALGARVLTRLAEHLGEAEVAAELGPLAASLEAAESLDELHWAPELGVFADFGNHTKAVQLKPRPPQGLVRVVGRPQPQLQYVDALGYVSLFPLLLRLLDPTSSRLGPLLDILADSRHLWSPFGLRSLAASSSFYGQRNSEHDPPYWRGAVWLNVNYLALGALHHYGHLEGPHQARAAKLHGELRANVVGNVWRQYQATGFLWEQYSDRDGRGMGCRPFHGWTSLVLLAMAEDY
Method in brief: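 Human full-length glucosidase I, His-tagged, […] and Ni-purified. Enzyme preincubated with compound dilutions 60 min at 37° C, then synthetic trisaccharide substrate 90 min at 37° C; stopped with 1.5M Tris pH 8.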

[2] = molecular target: T2, recombinant alpha-glucosidase II (murine full-length glucosidase II, alpha and beta subunits, Glu 2) (Mus musculus, UniProt Q8BHN3); assay: Alpha-glucosidase II assay (4-methylumbelliferyl-alpha-D-pyranoside substrate, fluorescence); conditions: Glucosidase 2; read-out: Glu2 IC50
T2 construct: made in house; host or cells: HEK-293T cells transduced with BacMam viruses (75% alpha, 25% beta); protein harvested from culture supernatant
T2 sequence (O08795 15-521): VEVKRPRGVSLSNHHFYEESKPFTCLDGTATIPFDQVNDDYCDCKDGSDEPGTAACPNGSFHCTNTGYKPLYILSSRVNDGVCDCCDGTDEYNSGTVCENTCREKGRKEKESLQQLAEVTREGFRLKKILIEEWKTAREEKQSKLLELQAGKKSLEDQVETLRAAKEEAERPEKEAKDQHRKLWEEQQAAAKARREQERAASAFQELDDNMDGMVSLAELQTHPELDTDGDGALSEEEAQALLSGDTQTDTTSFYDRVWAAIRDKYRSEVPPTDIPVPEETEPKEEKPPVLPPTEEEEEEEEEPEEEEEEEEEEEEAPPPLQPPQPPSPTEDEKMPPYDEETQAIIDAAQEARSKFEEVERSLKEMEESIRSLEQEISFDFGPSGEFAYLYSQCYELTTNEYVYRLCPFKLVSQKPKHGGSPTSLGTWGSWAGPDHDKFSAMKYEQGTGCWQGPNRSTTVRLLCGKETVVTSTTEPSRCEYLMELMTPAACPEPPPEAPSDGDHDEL
T2 sequence (Q8BHN3 33-944): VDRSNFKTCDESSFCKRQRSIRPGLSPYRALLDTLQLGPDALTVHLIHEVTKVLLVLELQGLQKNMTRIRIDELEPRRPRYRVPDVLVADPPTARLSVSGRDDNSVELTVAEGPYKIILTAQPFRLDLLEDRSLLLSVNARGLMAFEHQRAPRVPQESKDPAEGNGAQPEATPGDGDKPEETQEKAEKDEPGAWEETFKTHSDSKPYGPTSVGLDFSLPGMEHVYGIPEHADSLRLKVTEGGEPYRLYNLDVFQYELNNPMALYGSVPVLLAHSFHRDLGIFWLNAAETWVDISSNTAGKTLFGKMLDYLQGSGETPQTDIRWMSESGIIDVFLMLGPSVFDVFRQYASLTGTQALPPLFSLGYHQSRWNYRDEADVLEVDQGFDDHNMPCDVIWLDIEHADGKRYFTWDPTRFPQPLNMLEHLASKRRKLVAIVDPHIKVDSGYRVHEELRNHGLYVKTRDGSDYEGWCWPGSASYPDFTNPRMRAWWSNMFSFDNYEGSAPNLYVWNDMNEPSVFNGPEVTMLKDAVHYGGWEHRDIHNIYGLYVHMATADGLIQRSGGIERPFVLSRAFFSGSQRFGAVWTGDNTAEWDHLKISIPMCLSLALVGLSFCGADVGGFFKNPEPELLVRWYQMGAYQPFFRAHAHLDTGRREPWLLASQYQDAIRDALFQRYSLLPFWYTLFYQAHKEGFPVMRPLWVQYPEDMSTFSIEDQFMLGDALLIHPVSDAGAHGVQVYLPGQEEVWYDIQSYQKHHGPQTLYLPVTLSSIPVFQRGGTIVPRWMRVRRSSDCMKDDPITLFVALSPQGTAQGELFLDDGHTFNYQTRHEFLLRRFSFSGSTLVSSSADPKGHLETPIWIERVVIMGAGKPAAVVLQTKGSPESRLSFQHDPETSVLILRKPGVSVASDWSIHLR

[3] = molecular target: rat maltase (partially purified alpha-glucosidase from intestinal rat powder); assay: Intestinal alpha-glucosidase assay, maltose substrate (Glucose GO Kit)
Method in brief: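 Enzyme from intestinal rat powder, partially purified, is exposed to compound for 60 min at 37 °C. Disaccharide substrate (maltose or sucrose respectively) then reacts 30 min at 37 °C. Heat-stopped samples are assayed for glucose, and percent inhibition versus concentration gives IC50 via 4-PL.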

[4] = molecular target: rat sucrase (partially purified alpha-glucosidase from intestinal rat powder) (Rattus norvegicus, UniProt P23739); assay: Intestinal alpha-glucosidase assay, sucrose substrate (Glucose GO Kit)
Chain of rat sucrase (partially purified alpha-glucosidase from intestinal rat powder) (P23739 whole entry): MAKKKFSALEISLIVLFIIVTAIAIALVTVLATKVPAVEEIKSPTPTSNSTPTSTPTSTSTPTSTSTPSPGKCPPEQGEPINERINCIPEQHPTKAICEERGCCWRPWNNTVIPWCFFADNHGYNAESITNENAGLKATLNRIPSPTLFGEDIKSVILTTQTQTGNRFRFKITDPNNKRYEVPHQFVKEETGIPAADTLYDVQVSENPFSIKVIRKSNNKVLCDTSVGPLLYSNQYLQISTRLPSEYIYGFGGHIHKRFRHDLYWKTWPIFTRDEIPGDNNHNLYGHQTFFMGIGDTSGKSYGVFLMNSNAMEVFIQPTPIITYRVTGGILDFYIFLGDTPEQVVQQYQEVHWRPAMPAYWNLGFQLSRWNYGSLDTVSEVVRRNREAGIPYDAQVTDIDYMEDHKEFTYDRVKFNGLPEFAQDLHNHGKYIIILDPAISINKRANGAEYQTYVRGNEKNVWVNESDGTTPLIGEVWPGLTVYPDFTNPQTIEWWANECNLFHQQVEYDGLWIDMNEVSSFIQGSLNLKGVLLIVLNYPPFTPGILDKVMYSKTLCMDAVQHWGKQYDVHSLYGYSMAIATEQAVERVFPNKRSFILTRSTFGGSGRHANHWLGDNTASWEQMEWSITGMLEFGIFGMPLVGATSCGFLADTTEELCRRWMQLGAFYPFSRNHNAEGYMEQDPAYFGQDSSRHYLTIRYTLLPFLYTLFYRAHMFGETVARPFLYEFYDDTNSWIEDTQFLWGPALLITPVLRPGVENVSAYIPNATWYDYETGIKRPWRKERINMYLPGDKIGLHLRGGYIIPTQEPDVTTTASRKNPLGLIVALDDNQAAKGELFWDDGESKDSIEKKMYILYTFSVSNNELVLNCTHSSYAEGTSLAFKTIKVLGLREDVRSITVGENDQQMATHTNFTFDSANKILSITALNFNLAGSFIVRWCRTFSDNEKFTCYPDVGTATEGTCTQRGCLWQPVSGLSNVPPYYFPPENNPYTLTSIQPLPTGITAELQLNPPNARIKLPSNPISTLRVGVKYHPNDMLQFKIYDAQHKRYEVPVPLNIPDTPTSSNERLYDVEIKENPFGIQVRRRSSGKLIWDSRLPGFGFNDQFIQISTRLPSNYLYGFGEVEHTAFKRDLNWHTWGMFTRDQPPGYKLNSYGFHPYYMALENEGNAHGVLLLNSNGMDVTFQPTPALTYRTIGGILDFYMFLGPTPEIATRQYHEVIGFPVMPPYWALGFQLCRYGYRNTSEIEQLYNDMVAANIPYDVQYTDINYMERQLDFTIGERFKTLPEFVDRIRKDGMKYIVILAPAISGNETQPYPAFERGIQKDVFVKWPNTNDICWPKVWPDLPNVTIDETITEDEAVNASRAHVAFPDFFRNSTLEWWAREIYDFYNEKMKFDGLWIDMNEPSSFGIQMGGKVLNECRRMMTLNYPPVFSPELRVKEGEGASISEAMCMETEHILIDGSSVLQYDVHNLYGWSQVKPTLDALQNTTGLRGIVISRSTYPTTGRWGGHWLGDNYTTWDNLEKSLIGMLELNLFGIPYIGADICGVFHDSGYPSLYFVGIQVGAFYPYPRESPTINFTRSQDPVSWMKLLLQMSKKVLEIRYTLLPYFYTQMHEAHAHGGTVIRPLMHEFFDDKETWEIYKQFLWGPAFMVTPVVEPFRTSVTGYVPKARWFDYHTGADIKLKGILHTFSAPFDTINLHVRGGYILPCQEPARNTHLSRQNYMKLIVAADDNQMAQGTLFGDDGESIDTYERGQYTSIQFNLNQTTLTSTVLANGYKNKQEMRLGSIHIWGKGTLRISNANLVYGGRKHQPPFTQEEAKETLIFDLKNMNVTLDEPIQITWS
Method in brief: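 Partially purified rat intestinal alpha-glucosidase preincubated 60 min at 37 °C with serial compound dilutions, then sucrose substrate added for 30 min at 37 °C. Reaction stopped by 5 min at 90 °C; released glucose detected with Glucose GO kit. IC50 from 4-PL fit of % inhibition vs concentration.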

Compound | IC50 [1] [nM] | IC50 [2] [nM] | IC50 [3] [nM] | IC50 [4] [nM]
O=[N+]([O-])c1cc(N2CCOCC2)ccc1NCc1ccc(CN2C[C@@H](O)[C@H](O)[C@@H](O)[C@@H]2CO)cc1 (stereo in doubt) [Compound 1069, (2S,3S,4S,5R)-2-(hydroxymethyl)-1-{[4-({[4-(morpholin-4-yl)-2-nitrophenyl]amino}methyl)phenyl]methyl}piperidine-3,4,5-triol] | 22 | 4 | < 1 | 8
CN(Cc1ccc(CN2C[C@H](O)[C@@H](O)[C@H](O)[C@H]2CO)cc1)c1cc(-c2cccnn2)cc(C2CC2)c1 [Compound 1001, (2R,3R,4R,5S)-1-{[4-({[3-cyclopropyl-5-(pyridazin-3-yl)phenyl](methyl)amino}methyl)phenyl]methyl}-2-(hydroxymethyl)piperidine-3,4,5-triol] | 13 | 437 | < 1 | 15
Cc1cc(CN2CCOCC2)cc(NCCCCCCN2C[C@H](O)[C@@H](O)[C@H](O)[C@H]2CO)c1 [Compound 1003, (2R,3R,4R,5S)-2-(hydroxymethyl)-1-[6-({3-methyl-5-[(morpholin-4-yl)methyl]phenyl}amino)hexyl]piperidine-3,4,5-triol] | 366 | 2 | 21 | 382
Cc1cc(CN2CCOCC2)cc(NCc2ccc(CN3C[C@H](O)[C@@H](O)[C@H](O)[C@H]3CO)cc2)c1 [Compound 1005, (2R,3R,4R,5S)-2-(hydroxymethyl)-1-({4-[({3-methyl-5-[(morpholin-4-yl)methyl]phenyl}amino)methyl]phenyl}methyl)piperidine-3,4,5-triol] | 404 | 1580 | 58 | 661
OC[C@@H]1[C@@H](O)[C@H](O)[C@@H](O)CN1CCCCCCNc1cc(C2CC2)cc(N2CCOCC2)c1 [Compound 1006, (2R,3R,4R,5S)-1-(6-{[3-cyclopropyl-5-(morpholin-4-yl)phenyl]amino}hexyl)-2-(hydroxymethyl)piperidine-3,4,5-triol] | 220 | 1 | 10 | 116
N#Cc1cc(NCc2cccc(CN3C[C@H](O)[C@@H](O)[C@H](O)[C@H]3CO)c2)cc(-c2ccc[nH]2)c1 [Compound 1045, 3-(1H-pyrrol-2-yl)-5-{[(3-{[(2R,3R,4R,5S)-3,4,5-trihydroxy-2-(hydroxymethyl)piperidin-1-yl]methyl}phenyl)methyl]amino}benzonitrile] | < 1 | 7700 | < 1 | < 1
N#Cc1cc(NCc2cccc(CN3C[C@H](O)[C@@H](O)[C@H](O)[C@H]3CO)c2)cc(-c2cccnn2)c1 [Compound 1046, 3-(pyridazin-3-yl)-5-{[(3-{[(2R,3R,4R,5S)-3,4,5-trihydroxy-2-(hydroxymethyl)piperidin-1-yl]methyl}phenyl)methyl]amino}benzonitrile] | 17 | 18000 | 6 | 52
N#Cc1cc(NCc2cccc(CN3C[C@H](O)[C@@H](O)[C@H](O)[C@H]3CO)c2)cc(-c2ncccn2)c1 [Compound 1047, 3-(pyrimidin-2-yl)-5-{[(3-{[(2R,3R,4R,5S)-3,4,5-trihydroxy-2-(hydroxymethyl)piperidin-1-yl]methyl}phenyl)methyl]amino}benzonitrile] | 13 | 12900 | < 1 | 11
Cc1cc(NCc2ccc(CN3C[C@H](O)[C@@H](O)[C@H](O)[C@H]3CO)cc2)cc(N2CCOCC2)c1 [Compound 1048, (2R,3R,4R,5S)-2-(hydroxymethyl)-1-{[4-({[3-methyl-5-(morpholin-4-yl)phenyl]amino}methyl)phenyl]methyl}piperidine-3,4,5-triol] | 145 | 550 | 13 | 59
Cc1cc(NCc2ccc(CN3C[C@H](O)[C@@H](O)[C@H](O)[C@H]3CO)cc2)cc(C2=COCCO2)c1 [Compound 1050, (2R,3R,4R,5S)-1-{[4-({[3-(5,6-dihydro-1,4-dioxin-2-yl)-5-methylphenyl]amino}methyl)phenyl]methyl}-2-(hydroxymethyl)piperidine-3,4,5-triol] | 32 | 3 | < 1 | 4
Cc1cc(NCc2ccc(CN3C[C@H](O)[C@@H](O)[C@H](O)[C@H]3CO)cc2)cc(-c2ccc[nH]2)c1 [Compound 1051, (2R,3R,4R,5S)-2-(hydroxymethyl)-1-{[4-({[3-methyl-5-(1H-pyrrol-2-yl)phenyl]amino}methyl)phenyl]methyl}piperidine-3,4,5-triol] | 48 | 213 | < 1 | < 1
Cc1cc(NCc2ccc(CN3C[C@H](O)[C@@H](O)[C@H](O)[C@H]3CO)cc2)cc(-c2ncccn2)c1 [Compound 1053, (2R,3R,4R,5S)-2-(hydroxymethyl)-1-{[4-({[3-methyl-5-(pyrimidin-2-yl)phenyl]amino}methyl)phenyl]methyl}piperidine-3,4,5-triol] | 104 | 139 | 2 | 23
CS(=O)(=O)c1cc(NCc2ccc(CN3C[C@H](O)[C@@H](O)[C@H](O)[C@H]3CO)cc2)cc(N2CCOCC2)c1 [Compound 1054, (2R,3R,4R,5S)-2-(hydroxymethyl)-1-{[4-({[3-methanesulfonyl-5-(morpholin-4-yl)phenyl]amino}methyl)phenyl]methyl}piperidine-3,4,5-triol] | 102 | 2200 | 57 | 160
CS(=O)(=O)c1cc(NCc2ccc(CN3C[C@H](O)[C@@H](O)[C@H](O)[C@H]3CO)cc2)cc(-c2ncccn2)c1 [Compound 1059, (2R,3R,4R,5S)-2-(hydroxymethyl)-1-{[4-({[3-methanesulfonyl-5-(pyrimidin-2-yl)phenyl]amino}methyl)phenyl]methyl}piperidine-3,4,5-triol] | 33 | 58 | 8 | 45
N#Cc1cc(NCc2ccc(CN3C[C@H](O)[C@@H](O)[C@H](O)[C@H]3CO)cc2)cc(N2CCOCC2)c1 [Compound 1060, 3-(morpholin-4-yl)-5-{[(4-{[(2R,3R,4R,5S)-3,4,5-trihydroxy-2-(hydroxymethyl)piperidin-1-yl]methyl}phenyl)methyl]amino}-benzonitrile] | 41 | 262 | 9 | 52
N#Cc1cc(NCc2ccc(CN3C[C@H](O)[C@@H](O)[C@H](O)[C@H]3CO)cc2)cc(C2=COCCO2)c1 [Compound 1062, 3-(5,6-dihydro-1,4-dioxin-2-yl)-5-{[(4-{[(2R,3R,4R,5S)-3,4,5-trihydroxy-2-(hydroxymethyl)piperidin-1-yl]methyl}phenyl)-methyl]amino}benzonitrile] | 1 | < 1 | < 1 | < 1
N#Cc1cc(NCc2ccc(CN3C[C@H](O)[C@@H](O)[C@H](O)[C@H]3CO)cc2)cc(-c2ccc[nH]2)c1 [Compound 1063, 3-(1H-pyrrol-2-yl)-5-{[(4-{[(2R,3R,4R,5S)-3,4,5-trihydroxy-2-(hydroxymethyl)piperidin-1-yl]methyl}phenyl)methyl]amino}-benzonitrile] | 1 | 70 | < 1 | < 1
N#Cc1cc(NCc2ccc(CN3C[C@H](O)[C@@H](O)[C@H](O)[C@H]3CO)cc2)cc(-c2cccnn2)c1 [Compound 1064, 3-(pyridazin-3-yl)-5-{[(4-{[(2R,3R,4R,5S)-3,4,5-trihydroxy-2-(hydroxymethyl)piperidin-1-yl]methyl}phenyl)methyl]amino}-benzonitrile] | 12 | 2 | 2 | 26
